Measured values as given in PubChem BioAssay (NCI).
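Each compound was tested at five concentrations against cells in 96-well plates for 48 hours. The concentration for 50% growth inhibition is given as GI50. TGI: total growth inhibition.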

Tests used:
Test in all cases: growth of human tumour cells (NCI), 48 h
ACHN renal = system: ACHN renal
EKVX NSCLC = system: EKVX NSCLC
IGROV1 ovarian = system: IGROV1 ovarian
KM12 colon = system: KM12 colon
MALME-3M melanoma = system: MALME-3M melanoma
NCI-H226 lung = system: NCI-H226 lung
SF-295 CNS = system: SF-295 CNS
UACC-257 melanoma = system: UACC-257 melanoma
UACC-62 melanoma = system: UACC-62 melanoma
UO-31 renal = system: UO-31 renal

CN(CCO)/N=N/c1nc[nH]c1C(N)=O
TGI (ACHN renal): > 100 µM | TGI (EKVX NSCLC): > 100 µM | TGI (IGROV1 ovarian): > 100 µM | TGI (KM12 colon): > 100 µM | TGI (MALME-3M melanoma): > 100 µM | TGI (NCI-H226 lung): > 100 µM | TGI (SF-295 CNS): > 100 µM | TGI (UACC-257 melanoma): > 100 µM | TGI (UACC-62 melanoma): > 100 µM

CCOC(=O)/C(=N/Nc1ccc(Cl)cc1)N1C(=S)C=C(C)NN(C)C1=S
TGI (ACHN renal): > 100 µM | TGI (EKVX NSCLC): 73 µM | TGI (IGROV1 ovarian): > 100 µM | TGI (KM12 colon): > 100 µM | TGI (SF-295 CNS): 42.3 µM | TGI (UACC-257 melanoma): > 100 µM | TGI (UACC-62 melanoma): 90.6 µM | TGI (UO-31 renal): > 100 µM

C/C(=N\NC(=S)Nc1ccc(Cl)cc1)c1nc2ncccc2[nH]1
TGI (ACHN renal): 15.8 µM | TGI (EKVX NSCLC): 13.1 µM | TGI (IGROV1 ovarian): 21.5 µM | TGI (KM12 colon): 16.4 µM | TGI (MALME-3M melanoma): 15.7 µM | TGI (NCI-H226 lung): 8.25 µM | TGI (SF-295 CNS): 13.5 µM | TGI (UACC-257 melanoma): 7.75 µM | TGI (UACC-62 melanoma): 12.8 µM | TGI (UO-31 renal): 5.13 µM

Cc1ncc(CO)c(C=NCCCCCCN=Cc2c(CO)cnc(C)c2O)c1O
TGI (ACHN renal): > 100 µM | TGI (EKVX NSCLC): > 100 µM | TGI (IGROV1 ovarian): > 100 µM | TGI (KM12 colon): > 100 µM | TGI (MALME-3M melanoma): > 100 µM | TGI (NCI-H226 lung): > 100 µM | TGI (SF-295 CNS): > 100 µM | TGI (UACC-257 melanoma): > 100 µM | TGI (UACC-62 melanoma): > 100 µM | TGI (UO-31 renal): > 100 µM

Cc1nc(N(CCO)CCO)c2sc(=S)n(-c3ccccc3)c2n1
TGI (ACHN renal): > 100 µM | TGI (IGROV1 ovarian): > 100 µM | TGI (KM12 colon): > 100 µM | TGI (MALME-3M melanoma): > 100 µM | TGI (NCI-H226 lung): > 100 µM | TGI (SF-295 CNS): > 100 µM | TGI (UACC-257 melanoma): > 100 µM | TGI (UACC-62 melanoma): > 100 µM | TGI (UO-31 renal): > 100 µM

NC(=S)N/N=C/c1ccc(OC(=O)COc2ccccc2Cl)cn1
TGI (EKVX NSCLC): 97.8 µM | TGI (IGROV1 ovarian): > 100 µM | TGI (KM12 colon): > 100 µM | TGI (MALME-3M melanoma): > 88.7 µM | TGI (NCI-H226 lung): 73.9 µM | TGI (SF-295 CNS): > 100 µM | TGI (UACC-257 melanoma): > 92.4 µM | TGI (UACC-62 melanoma): 42.7 µM | TGI (UO-31 renal): 98.5 µM

COc1cc(C2S/C(=C/c3ccccc3)C(=O)N2c2ccccc2Cl)cc(OC)c1OC (stereo not drawn)
TGI (ACHN renal): > 100 µM | TGI (EKVX NSCLC): 50.8 µM | TGI (KM12 colon): > 100 µM | TGI (MALME-3M melanoma): 82.1 µM | TGI (NCI-H226 lung): > 100 µM | TGI (SF-295 CNS): > 100 µM | TGI (UACC-257 melanoma): > 100 µM | TGI (UACC-62 melanoma): > 100 µM | TGI (UO-31 renal): > 100 µM

COC(=O)C1=C(O)C(C(=O)OC)[C@@]2(O)[C@@H](C(=O)OC)CC[C@@H]1[C@@H]2C(=O)OC (stereo partly drawn)
TGI (ACHN renal): > 100 µM | TGI (EKVX NSCLC): 85.7 µM | TGI (KM12 colon): 66 µM | TGI (MALME-3M melanoma): 74.3 µM | TGI (NCI-H226 lung): 70.9 µM | TGI (UACC-257 melanoma): > 100 µM | TGI (UACC-62 melanoma): > 100 µM | TGI (UO-31 renal): > 100 µM

O=C(O)CN=c1c2ccccc2n(O)c2ccccc12
TGI (ACHN renal): > 100 µM | TGI (EKVX NSCLC): > 100 µM | TGI (IGROV1 ovarian): > 100 µM | TGI (KM12 colon): > 100 µM | TGI (MALME-3M melanoma): > 100 µM | TGI (NCI-H226 lung): > 100 µM | TGI (SF-295 CNS): > 100 µM | TGI (UACC-257 melanoma): > 100 µM | TGI (UACC-62 melanoma): > 100 µM | TGI (UO-31 renal): > 100 µM

BrC1=CN2C[n+]3cc(Br)c4ccccc4c3N=C2c2ccccc21
TGI (ACHN renal): 34.7 µM | TGI (IGROV1 ovarian): 32.1 µM | TGI (KM12 colon): 15.9 µM | TGI (MALME-3M melanoma): 7.14 µM | TGI (SF-295 CNS): 21.5 µM | TGI (UACC-257 melanoma): 48.8 µM | TGI (UACC-62 melanoma): 20.9 µM | TGI (UO-31 renal): > 100 µM

COc1cc(Cc2ccc3c(c2C#N)N(C)c2ccccc2S3)cc(OC)c1OC
TGI (ACHN renal): > 100 µM | TGI (EKVX NSCLC): > 100 µM | TGI (IGROV1 ovarian): > 100 µM | TGI (KM12 colon): > 100 µM | TGI (MALME-3M melanoma): > 100 µM | TGI (NCI-H226 lung): > 100 µM | TGI (SF-295 CNS): > 100 µM | TGI (UACC-257 melanoma): > 100 µM | TGI (UO-31 renal): > 100 µM

C/C([O-])=C(/c1nc(-c2ccc([N+](=O)[O-])o2)no1)[n+]1cc(C)ccc1C
TGI (EKVX NSCLC): > 100 µM | TGI (IGROV1 ovarian): > 81.6 µM | TGI (KM12 colon): 25.4 µM | TGI (MALME-3M melanoma): 28.2 µM | TGI (NCI-H226 lung): 31.6 µM | TGI (SF-295 CNS): 24.1 µM | TGI (UACC-257 melanoma): 24.2 µM | TGI (UACC-62 melanoma): 21.3 µM | TGI (UO-31 renal): 40 µM

Cc1ccc(S(=O)(=O)Nc2cc(Sc3ccccc3)c(O)c3ccccc23)cc1
GI50 (ACHN renal): 2800 nM | TGI (ACHN renal): 10.4 µM | GI50 (EKVX NSCLC): 12.3 µM | TGI (EKVX NSCLC): 25.3 µM | GI50 (IGROV1 ovarian): 3.5 µM | TGI (IGROV1 ovarian): 10.4 µM | GI50 (KM12 colon): 6.01 µM | TGI (KM12 colon): 18.9 µM | GI50 (MALME-3M melanoma): 7.17 µM | TGI (MALME-3M melanoma): 19.6 µM | GI50 (NCI-H226 lung): 14.7 µM | TGI (NCI-H226 lung): 39.3 µM | GI50 (SF-295 CNS): 12.9 µM | TGI (SF-295 CNS): 26.8 µM | GI50 (UACC-257 melanoma): 1.86 µM | TGI (UACC-257 melanoma): 3.67 µM | GI50 (UACC-62 melanoma): 2410 nM | TGI (UACC-62 melanoma): 6.72 µM | GI50 (UO-31 renal): 2880 nM | TGI (UO-31 renal): 10.9 µM

COc1cc2nc(N3CCC[C@@H](NC4=CC(=O)c5ccccc5C4=O)C3)nc(N)c2cc1OC
GI50 (KM12 colon): 1.81 µM | TGI (KM12 colon): 3.33 µM | GI50 (NCI-H226 lung): 21.9 µM | TGI (NCI-H226 lung): 52.7 µM | GI50 (UACC-257 melanoma): 16.6 µM | TGI (UACC-257 melanoma): 38 µM | GI50 (UACC-62 melanoma): 2010 nM | TGI (UACC-62 melanoma): 4.25 µM | GI50 (UO-31 renal): 1620 nM | TGI (UO-31 renal): 3.25 µM

CCOC(=O)C(=O)Nc1cccc(C)c1C
TGI (ACHN renal): > 100 µM | TGI (EKVX NSCLC): > 100 µM | TGI (IGROV1 ovarian): > 100 µM | TGI (KM12 colon): > 100 µM | TGI (MALME-3M melanoma): > 100 µM | TGI (NCI-H226 lung): > 100 µM | TGI (SF-295 CNS): > 100 µM | TGI (UACC-257 melanoma): > 100 µM | TGI (UACC-62 melanoma): > 100 µM | TGI (UO-31 renal): > 100 µM
